Reference: patent publication US20250312468A1, “ANTI-PROTAC ANTIBODIES AND COMPLEXES” (Merck Patent GmbH, priority 2021, published 2025)
pIC50, pKd: −log10 of the molar value.

Tests used:
MIC2 = experiment: SPR binding of PROTACs to immobilized antibody MIC2; settings: MIC2, 1:1 kinetic binding model
Method: (§1) The binding affinities of hit antibodies MIC1 and MIC2 to a diverse set of VH032-based PROTACs (FIGS. 8A-8B) was determined by surface plasmon resonance (SPR) in a Biacore T200 instrument. The running buffer consist of PBS, 0.05% Tween-20, 2% DMSO and temperature and flow rate were set to 30° C. and 30 μL/min, respectively. The assay setup is depicted exemplarily in FIG. 7A. CM5 sensor chips were coated with antibody (=ligand; 2500 RU) using standard EDC/NHS chemistry. PROTACs (=analytes) were serially diluted (1 μM-1.9 nM) in running buffer, injected to the instrument in consecutive runs and were captured by the antibody resulting in an increase of the corresponding SPR response. After the association step (300 s), running buffer was injected for 600 s and the PROTAC dissociated from the antibody leading to signal decrease. After each run, residual bound PROTAC was removed from the immobilized antibody by injection of 10 mM glycine/HCl, pH 1.5 for 2×30 s regenerating the antibody for the next association and dissociation cycle. To compensate for matrix effects, the measured SPR response signal was subtracted by the analyte response to an inactivated (EDC/NHS, ethanol amine) reference surface omitting the ligand. Furthermore, a DMSO solvent correction was performed and analyte response was subtracted by the running buffer signal. The corrected response was fitted by a 1:1 kinetic binding model yielding the on- (kon) and off-rate (koff) of the PROTAC, as well as its dissociation constant (KD).

MIC1 = experiment: SPR binding of PROTACs to immobilized antibody MIC1; settings: binding of PROTACs to MIC1, steady-state model
Method: as §1, with “The corrected response was fitted by a 1:1 kinetic binding model yielding the on- (kon) and off-rate (koff) of the PROTAC, as well as its dissociation constant (KD).” left out

CD33xMIC7 = experiment: SPR affinity of VHH clone (antibody fusion) to PROTACs; settings: CD33xMIC7 immobilized, 25° C., read-out: KD [M] for antibody binding to PROTAC
Method: (§2) The kinetic and affinity parameters of protein-PROTAC interactions were evaluated by SPR. The anti-PROTAC VHH clones MIC5-MIC14 were immobilized as CD33 or CLL1 antibody fusion (the manufacturing of fusion proteins and the used linker is described in chapter 7.9) onto a CM5 (Series S) sensor chip via the standard amine coupling procedure, at 25° C. Prior to immobilization, the carboxymethylated surface of the chip was activated with 400 mM 1-ethyl-3-(3-dimethylaminopropyl)-carbodiimide and 100 mM N-hydroxysuccinimide for 7 min. Hit anti-PROTAC VHH as CD33 and CLL1 antibody fusions were diluted to 10 μg/ml in 10 mM Acetate at pH 4.5 and immobilized on the activated surface chip for 7 min, in order to reach 3,000 to 6,000 response units (RU). The remaining activated carboxymethylated groups were blocked with a 10 min injection of 1 M ethanolamine pH 8. HBS-N, which consists of 10 mM HEPES pH 7.4 and 150 mM NaCl, was used as the background buffer during immobilization. PROTACs were prediluted in DMSO, diluted 1:50 in running buffer (12 mM phosphate pH 7.4, 137 mM NaCl, 2.7 mM KCl, 0.05% Tween20, 2% DMSO) and injected at ten different concentrations using two-fold dilution series, from 1 μM to 0.002 μM. A DMSO solvent correction (1%-3%) was performed to account for variations in bulk signal and to achieve high-quality data. Interaction analysis cycles consisted of a 300 sec sample injection (30 μL/min; association phase) followed by 900 sec of buffer flow (dissociation phase).
(§3) All sensorgrams were processed by first subtracting the binding response recorded from the control surface (reference flow-channel), followed by subtracting of the buffer blank injection from the active flow-channel (target protein immobilized). All datasets were fit to a simple 1:1 Langmuir interaction model to determine the kinetic rate constants. Experiments were performed on a Biacore 8k+ (Cytiva, Uppsala, Sweden) at 25° C. and the interactions were evaluated using the provided Biacore Insight Evaluation software.

CLL1xMIC7 = experiment: as above; settings: CLL1xMIC7 immobilized, 25° C., read-out: KD [M] for antibody binding to PROTAC
Method: as §2, §3

SKOV3 = experiment: CellTiter-Glo cell viability assay (VHH-based PAX); settings: SKOV3, PROTAC alone
Method: (§4) Several cell viability experiments were performed following the procedure described below: Cells were seeded in different media into white cell culture-treated flat and clear bottom multiwell plates followed by overnight incubation in a humid chamber at 37° C. and 5% CO2. Complexation was performed as described in chapter 7.4.
(§5) The solutions were added to the cells based on the antibody concentration using nanodrop dispension using a Tecan D300e Digital Dispenser and all wells were normalized to the same volume using 0.3% TW20 in PBS pH 7.4 and DMSO to a final solvent concentration of 0.05% DMSO and 0.003% TW20. Incubation was performed at 37° C. at 5% or 10% CO2 dependent on the medium. The assay was developed after 3 days if not otherwise stated using CellTiter-Glo Luminescent Cell Viability Assay as described in the manufacturer's protocol. In brief, the plates were equilibrated to room temperature for 30 minutes. 100 mL CellTiter-Glo Buffer were added to the CellTiter-Glo Substrate Flask and mixed well. 30 μL of the reagent was transferred to each well. After incubation for 3 minutes at room temperature while shaking at 550 rpm, the plate was incubated for another 10 minutes at room temperature. The luminescence was read on an Envision reader from Perkin Elmer. Solvent alone and Bortezomib (1.0E-05 M) served as high control (100% viability) and low control (0% viability), respectively. Raw data were converted into percent cell viability relative to the high and low control, which were set to 100% and 0%, respectively. […] The concentration corresponds to the concentration of PROTACs in the PAX.

MCF7 = experiment: CellTiter-Glo cell viability assay (VHH-based PAX); settings: MCF7, PROTAC alone
Method: as §4, §5

OVCAR3 = experiment: CellTiter-Glo cell viability assay (VHH-based PAX); settings: OVCAR3, PROTAC alone
Method: as §4, §5

HCC827 = experiment: CellTiter-Glo cell viability assay (VHH-based PAX); settings: HCC827, PROTAC alone
Method: as §4, §5

NCIN87 = experiment: CellTiter-Glo cell viability assay (VHH-based PAX); settings: NCIN87, PROTAC alone
Method: as §4, §5

A431 = experiment: CellTiter-Glo cell viability assay (VHH-based PAX); settings: A431, PROTAC alone
Method: as §4, §5

SKBR3 = experiment: CellTiter-Glo cell viability assay (VHH-based PAX); settings: SKBR3, PROTAC alone
Method: as §4, §5

MDAMB468 cells = experiment: CellTiter-Glo cell viability assay (VHH-based PAX); settings: MDAMB468, PROTAC alone
Method: as §4, §5

HEPG2 cells = experiment: CellTiter-Glo cell viability assay (VHH-based PAX); settings: HEPG2, PROTAC alone
Method: as §4, §5

A549 = experiment: CellTiter-Glo cell viability assay (VHH-based PAX); settings: A549, PROTAC alone
Method: as §4, §5

| Compound | pKd (MIC2) | koff (MIC2) | kon (MIC2) | pKd (MIC1) | Kd (CD33xMIC7) | Kd (CLL1xMIC7) | pIC50 (SKOV3) | pIC50 (MCF7) | pIC50 (OVCAR3) | pIC50 (HCC827) | pIC50 (NCIN87) | pIC50 (A431) | pIC50 (SKBR3) | pIC50 (MDAMB468 cells) | pIC50 (HEPG2 cells) | pIC50 (A549) |
| --- | --- | --- | --- | --- | --- | --- | --- | --- | --- | --- | --- | --- | --- | --- | --- | --- |
| Cc1ncsc1-c1ccc(CNC(=O)[C@@H]2C[C@@H](O)CN2C(=O)[C@@H](NC(=O)COCCOCCOCCNC(=O)C[C@@H]2N=C(c3ccc(Cl)cc3)c3c(sc(C)c3C)-n3c(C)nnc32)C(C)(C)C)cc1 [MZ1] | 9.92 | NM/1.30E−04 1/s | NM/1.10E+06 1/Ms | 8.31 |  |  |  |  |  |  |  |  |  |  |  |  |
| Cc1ncsc1-c1ccc(CNC(=O)[C@@H]2C[C@@H](O)CN2C(=O)[C@@H](NC(=O)COCC(C)(COCCOCCOCCNC(=O)C[C@@H]2N=C(c3ccc(Cl)cc3)c3c(sc(C)c3C)-n3c(C)nnc32)COCCOCCOCCNC(=O)C[C@@H]2N=C(c3ccc(Cl)cc3)c3c(sc(C)c3C)-n3c(C)nnc32)C(C)(C)C)cc1 [SIM1] |  |  |  |  | 3.8e-09 M | < 1e-10 M | 8.62 | 8.82 | 8.55 | 8.19 | 8.40 | 8.52 | 8.44 | 8.15 | 7.85 | 7.77 |
